{"source": "patent US20150218099A1", "about": "“METHODS FOR CONTROL OF AQUATIC WEEDS USING HERBICIDAL 4-AMINO-3-CHLORO-6-(4-CHLORO-2-FLUORO-3-METHOXYPHENYL)PYRIDINE-2-CARBOXYLIC ACIDS” (Dow AgroSciences LLC, priority 2014, published 2015)", "key": {"Hydrilla (HYLLI) [1]": {"system": "Hydrilla (HYLLI)", "experiment": "Control of hydrilla: aboveground dry weight after submersed exposure (12 L tanks)", "assay_type": "in vivo, Hydrilla verticillata (L.f.) Royle", "details": "final aboveground dry weight, thirty-three days following submersed exposure, untreated 1.047", "text": "Apical sections (12 to 15 centimeters (cm) in length) of hydrilla (HYLLI) were planted into small pots (13.5 cm length×3.75 cm diameter) containing topsoil amended with 14-14-14 slow release Osmocote® fertilizer (˜2.5 grams (g) Osmocote per kilogram (kg) soil). Approximately 5 to 7 cm of the apical section extended above the sediment at planting, and a sand cap was placed over the potting soil (˜2 cm deep). Plants were then transferred to 12 liter (L) acrylic tanks filled with well water. Tanks were maintained in a growth room with a 14:10 hour (h) photoperiod at 26° C. (±2° C.). Plants were allowed to grow for 17 days (d) before the treatments were initiated in triple replicate. Plants were treated with Compound 1 (halauxifen-methyl) at 0, 10, 100, 1000 parts per billion (ppb) with three replicates each. Treatments were only applied once. Plants were harvested at 33 d after initial treatment. At harvest, plants were rinsed free of algae and placed in paper sacks in a drying oven for 2 d at 70° C. temperature. Mean dry weights were determined and means separated using least significant differences (Table 1)."}, "Hydrilla (HYLLI) [2]": {"system": "Hydrilla (HYLLI)", "experiment": "Control of hydrilla: aboveground dry weight after exposure to Compounds 1 and 2 (14 L cylinders)", "assay_type": "in vivo, Hydrilla verticillata (L.f.) Royle", "details": "final aboveground dry weight, SC formulation, untreated 2.48", "experimental": "Apical sections of hydrilla (HYLLI) were planted in potting soil amended with Osmocote® fertilizer in small pots (13.5 cm length×3.75 cm diameter). A 2.54 cm sand layer was placed over the top of the potting soil. The pots containing hydrilla were placed into 14 L acrylic cylinders filled with well water and allowed to establish slight growth prior to treatment. Cylinders were then treated with Compound 1 (halauxifen-methyl 96 grams acid equivalent per liter (g ae/L) Suspension Concentrate (SC)) or Compound 2 (benzyl 4-amino-3-chloro-5-fluoro-6-(4-chloro-2-fluoro-3-methoxyphenyl)pyridine-2-carboxylate (125 grams active ingredient per liter (g ai/L) SC)) at 50, 100 and 200 parts per billion (ppb). All treatments were replicated 4 times. […]"}, "[3]": {"system": "Eurasian Watermilfoil (MYPSP)", "experiment": "Control of Eurasian watermilfoil: aboveground dry weight after exposure to Compound 1", "assay_type": "in vivo, Myriophyllum spicatum L.", "details": "thirty days following a 24-hour exposure, untreated 1.257", "text": "(§1) Apical sections (12 to 15 cm in length) of Eurasian watermilfoil (MYPSP) and curlyleaf pondweed (PTMCR) were planted into small pots (13.5 cm length×3.75 cm diameter) containing topsoil amended with 14-14-14 slow release Osmocote® fertilizer (˜2.5 g Osmocote/kg soil). Approximately 5 to 7 cm of the apical section extended above the sediment at planting, and a sand cap was placed over the potting soil (˜2 cm deep). Plants were then transferred to 12 L acrylic tanks filled with well water. Plants were allowed to grow for 7 d before the treatment was initiated in triple replicate. […] At harvest, plants were rinsed free of algae, roots and shoots were separated and placed in paper sacks in a drying oven for 4 days at 70° C. temperature, and dry weights were measured and compared to an untreated control treatment (Table 3)."}, "[4]": {"system": "Curlyleaf Pondweed (PTMCR)", "experiment": "Control of curlyleaf pondweed: aboveground dry weight after exposure to Compound 1", "assay_type": "in vivo, Potamogeton crispus L.", "details": "thirty days following a 24-hour exposure, untreated 0.087", "text": "as §1"}}}
{"compound": "COC(=O)c1nc(-c2ccc(Cl)c(OC)c2F)cc(N)c1Cl", "note": "[Compound 1, methyl 4-amino-3-chloro-6-(4-chloro-2-fluoro-3-methoxyphenyl)pyridine-2-carboxylate]", "values": [{"measurement": "Dry Weight (grams) of HYLLI", "setting": "Hydrilla (HYLLI) [1]; 10 ppb", "result": 0.02, "unit": "b grams"}, {"measurement": "Dry Weight (grams) of HYLLI", "setting": "Hydrilla (HYLLI) [1]; 100 ppb", "result": 0.003, "unit": "ab grams"}, {"measurement": "Dry Weight (grams) of HYLLI", "setting": "Hydrilla (HYLLI) [1]; 1000 ppb", "result": 0, "unit": "b grams"}, {"measurement": "Dry Weight (grams) of HYLLI", "setting": "Hydrilla (HYLLI) [2]; 50 ppb", "result": 0.02, "unit": "b grams"}, {"measurement": "Dry Weight (grams) of HYLLI", "setting": "Hydrilla (HYLLI) [2]; 100 ppb", "result": 0.64, "unit": "ab grams"}, {"measurement": "Dry Weight (grams) of HYLLI", "setting": "Hydrilla (HYLLI) [2]; 200 ppb", "result": 0, "unit": "b grams"}, {"measurement": "Dry Weight (grams) of MYPSP", "setting": "[3]; 5 ppb", "result": 0.000, "unit": "b grams"}, {"measurement": "Dry Weight (grams) of MYPSP", "setting": "[3]; 10 ppb", "result": 0.000, "unit": "b grams"}, {"measurement": "Dry Weight (grams) of MYPSP", "setting": "[3]; 50 ppb", "result": 0.000, "unit": "b grams"}, {"measurement": "Dry Weight (grams) of MYPSP", "setting": "[3]; 100 ppb", "result": 0.000, "unit": "b grams"}, {"measurement": "Dry Weight (grams) of PTMCR", "setting": "[4]; 5 ppb", "result": 0.117, "unit": "a grams"}, {"measurement": "Dry Weight (grams) of PTMCR", "setting": "[4]; 10 ppb", "result": 0.043, "unit": "ab grams"}, {"measurement": "Dry Weight (grams) of PTMCR", "setting": "[4]; 50 ppb", "result": 0.000, "unit": "b grams"}, {"measurement": "Dry Weight (grams) of PTMCR", "setting": "[4]; 100 ppb", "result": 0.000, "unit": "b grams"}]}
{"compound": "COc1c(Cl)ccc(-c2nc(C(=O)OCc3ccccc3)c(Cl)c(N)c2F)c1F", "note": "[Compound 2, benzyl 4-amino-3-chloro-5-fluoro-6-(4-chloro-2-fluoro-3-methoxyphenyl)pyridine-2-carboxylate]", "values": [{"measurement": "Dry Weight (grams) of HYLLI", "setting": "Hydrilla (HYLLI) [2]; 50 ppb", "result": 0, "unit": "b grams"}, {"measurement": "Dry Weight (grams) of HYLLI", "setting": "Hydrilla (HYLLI) [2]; 100 ppb", "result": 0, "unit": "b grams"}, {"measurement": "Dry Weight (grams) of HYLLI", "setting": "Hydrilla (HYLLI) [2]; 200 ppb", "result": 0, "unit": "b grams"}]}
